Source: the NIST ThermoML archive (doi:10.1016/j.fluid.2016.02.009)
± gives the expanded uncertainty stated by the source.

Conditions: Liquid, Vibrating tube method

CCCCCOCCCCC [dipentyl ether]
mass density (283.15 K, 100 kPa): 790.99 ± 0.29 kg/m3
mass density (283.15 K, 5000 kPa): 794.85 ± 0.32 kg/m3
mass density (283.15 K, 10000 kPa): 798.47 ± 0.35 kg/m3
mass density (283.15 K, 15000 kPa): 801.9 ± 0.38 kg/m3
mass density (283.15 K, 20000 kPa): 805.2 ± 0.41 kg/m3
mass density (283.15 K, 25000 kPa): 808.38 ± 0.43 kg/m3
mass density (283.15 K, 30000 kPa): 811.47 ± 0.46 kg/m3
mass density (283.15 K, 35000 kPa): 814.44 ± 0.49 kg/m3
mass density (283.15 K, 40000 kPa): 817.31 ± 0.52 kg/m3
mass density (283.15 K, 45000 kPa): 820.12 ± 0.55 kg/m3
mass density (283.15 K, 50000 kPa): 822.84 ± 0.58 kg/m3
mass density (283.15 K, 55000 kPa): 825.48 ± 0.61 kg/m3
mass density (283.15 K, 60000 kPa): 828.06 ± 0.63 kg/m3
mass density (283.15 K, 65000 kPa): 830.58 ± 0.66 kg/m3
mass density (288.15 K, 100 kPa): 786.98 ± 0.3 kg/m3
mass density (288.15 K, 5000 kPa): 790.95 ± 0.32 kg/m3
mass density (288.15 K, 10000 kPa): 794.65 ± 0.35 kg/m3
mass density (288.15 K, 15000 kPa): 798.17 ± 0.38 kg/m3
mass density (288.15 K, 20000 kPa): 801.55 ± 0.41 kg/m3
mass density (288.15 K, 25000 kPa): 804.81 ± 0.44 kg/m3
mass density (288.15 K, 30000 kPa): 807.94 ± 0.46 kg/m3
mass density (288.15 K, 35000 kPa): 810.97 ± 0.49 kg/m3
mass density (288.15 K, 40000 kPa): 813.93 ± 0.52 kg/m3
mass density (288.15 K, 45000 kPa): 816.78 ± 0.55 kg/m3
mass density (288.15 K, 50000 kPa): 819.54 ± 0.58 kg/m3
mass density (288.15 K, 55000 kPa): 822.24 ± 0.61 kg/m3
mass density (288.15 K, 60000 kPa): 824.87 ± 0.64 kg/m3
mass density (288.15 K, 65000 kPa): 827.41 ± 0.67 kg/m3
mass density (293.15 K, 100 kPa): 782.96 ± 0.3 kg/m3
mass density (293.15 K, 5000 kPa): 787.04 ± 0.32 kg/m3
mass density (293.15 K, 10000 kPa): 790.83 ± 0.35 kg/m3
mass density (293.15 K, 15000 kPa): 794.44 ± 0.38 kg/m3
mass density (293.15 K, 20000 kPa): 797.91 ± 0.41 kg/m3
mass density (293.15 K, 25000 kPa): 801.23 ± 0.44 kg/m3
mass density (293.15 K, 30000 kPa): 804.44 ± 0.47 kg/m3
mass density (293.15 K, 35000 kPa): 807.54 ± 0.5 kg/m3
mass density (293.15 K, 40000 kPa): 810.53 ± 0.53 kg/m3
mass density (293.15 K, 45000 kPa): 813.44 ± 0.56 kg/m3
mass density (293.15 K, 50000 kPa): 816.26 ± 0.59 kg/m3
mass density (293.15 K, 55000 kPa): 819.01 ± 0.62 kg/m3
mass density (293.15 K, 60000 kPa): 821.67 ± 0.65 kg/m3
mass density (293.15 K, 65000 kPa): 824.26 ± 0.68 kg/m3
mass density (298.15 K, 100 kPa): 778.94 ± 0.3 kg/m3
mass density (298.15 K, 5000 kPa): 783.12 ± 0.32 kg/m3
mass density (298.15 K, 10000 kPa): 787.02 ± 0.35 kg/m3
mass density (298.15 K, 15000 kPa): 790.73 ± 0.38 kg/m3
mass density (298.15 K, 20000 kPa): 794.27 ± 0.41 kg/m3
mass density (298.15 K, 25000 kPa): 797.69 ± 0.44 kg/m3
mass density (298.15 K, 30000 kPa): 800.97 ± 0.47 kg/m3
mass density (298.15 K, 35000 kPa): 804.13 ± 0.5 kg/m3
mass density (298.15 K, 40000 kPa): 807.2 ± 0.53 kg/m3
mass density (298.15 K, 45000 kPa): 810.16 ± 0.57 kg/m3
mass density (298.15 K, 50000 kPa): 813.04 ± 0.6 kg/m3
mass density (298.15 K, 55000 kPa): 815.82 ± 0.63 kg/m3
mass density (298.15 K, 60000 kPa): 818.54 ± 0.66 kg/m3
mass density (298.15 K, 65000 kPa): 821.19 ± 0.68 kg/m3
mass density (303.15 K, 100 kPa): 774.9 ± 0.3 kg/m3
mass density (303.15 K, 5000 kPa): 779.22 ± 0.32 kg/m3
mass density (303.15 K, 10000 kPa): 783.2 ± 0.35 kg/m3
mass density (303.15 K, 15000 kPa): 787 ± 0.38 kg/m3
mass density (303.15 K, 20000 kPa): 790.65 ± 0.41 kg/m3
mass density (303.15 K, 25000 kPa): 794.13 ± 0.44 kg/m3
mass density (303.15 K, 30000 kPa): 797.48 ± 0.47 kg/m3
mass density (303.15 K, 35000 kPa): 800.72 ± 0.51 kg/m3
mass density (303.15 K, 40000 kPa): 803.84 ± 0.54 kg/m3
mass density (303.15 K, 45000 kPa): 806.86 ± 0.57 kg/m3
mass density (303.15 K, 50000 kPa): 809.78 ± 0.6 kg/m3
mass density (303.15 K, 55000 kPa): 812.62 ± 0.63 kg/m3
mass density (303.15 K, 60000 kPa): 815.39 ± 0.66 kg/m3
mass density (303.15 K, 65000 kPa): 818.05 ± 0.69 kg/m3
mass density (308.15 K, 100 kPa): 770.87 ± 0.3 kg/m3
mass density (308.15 K, 5000 kPa): 775.29 ± 0.33 kg/m3
mass density (308.15 K, 10000 kPa): 779.38 ± 0.36 kg/m3
mass density (308.15 K, 15000 kPa): 783.28 ± 0.39 kg/m3
mass density (308.15 K, 20000 kPa): 787 ± 0.42 kg/m3
mass density (308.15 K, 25000 kPa): 790.57 ± 0.45 kg/m3
mass density (308.15 K, 30000 kPa): 793.99 ± 0.48 kg/m3
mass density (308.15 K, 35000 kPa): 797.3 ± 0.51 kg/m3
mass density (308.15 K, 40000 kPa): 800.48 ± 0.54 kg/m3
mass density (308.15 K, 45000 kPa): 803.56 ± 0.58 kg/m3
mass density (308.15 K, 50000 kPa): 806.55 ± 0.61 kg/m3
mass density (308.15 K, 55000 kPa): 809.43 ± 0.64 kg/m3
mass density (308.15 K, 60000 kPa): 812.24 ± 0.67 kg/m3
mass density (308.15 K, 65000 kPa): 814.95 ± 0.7 kg/m3
mass density (313.15 K, 100 kPa): 766.82 ± 0.3 kg/m3
mass density (313.15 K, 5000 kPa): 771.35 ± 0.33 kg/m3
mass density (313.15 K, 10000 kPa): 775.57 ± 0.36 kg/m3
mass density (313.15 K, 15000 kPa): 779.56 ± 0.39 kg/m3
mass density (313.15 K, 20000 kPa): 783.37 ± 0.42 kg/m3
mass density (313.15 K, 25000 kPa): 787.03 ± 0.45 kg/m3
mass density (313.15 K, 30000 kPa): 790.53 ± 0.48 kg/m3
mass density (313.15 K, 35000 kPa): 793.9 ± 0.51 kg/m3
mass density (313.15 K, 40000 kPa): 797.15 ± 0.55 kg/m3
mass density (313.15 K, 45000 kPa): 800.28 ± 0.58 kg/m3
mass density (313.15 K, 50000 kPa): 803.33 ± 0.62 kg/m3
mass density (313.15 K, 55000 kPa): 806.26 ± 0.65 kg/m3
mass density (313.15 K, 60000 kPa): 809.11 ± 0.68 kg/m3
mass density (313.15 K, 65000 kPa): 811.88 ± 0.71 kg/m3
mass density (318.15 K, 100 kPa): 762.76 ± 0.3 kg/m3
mass density (318.15 K, 5000 kPa): 767.42 ± 0.33 kg/m3
mass density (318.15 K, 10000 kPa): 771.74 ± 0.36 kg/m3
mass density (318.15 K, 15000 kPa): 775.84 ± 0.39 kg/m3
mass density (318.15 K, 20000 kPa): 779.77 ± 0.42 kg/m3
mass density (318.15 K, 25000 kPa): 783.5 ± 0.45 kg/m3
mass density (318.15 K, 30000 kPa): 787.08 ± 0.48 kg/m3
mass density (318.15 K, 35000 kPa): 790.52 ± 0.52 kg/m3
mass density (318.15 K, 40000 kPa): 793.82 ± 0.55 kg/m3
mass density (318.15 K, 45000 kPa): 797.02 ± 0.59 kg/m3
mass density (318.15 K, 50000 kPa): 800.1 ± 0.62 kg/m3
mass density (318.15 K, 55000 kPa): 803.09 ± 0.65 kg/m3
mass density (318.15 K, 60000 kPa): 806 ± 0.69 kg/m3
mass density (318.15 K, 65000 kPa): 808.83 ± 0.72 kg/m3
mass density (323.15 K, 100 kPa): 758.69 ± 0.3 kg/m3
mass density (323.15 K, 5000 kPa): 763.48 ± 0.33 kg/m3
mass density (323.15 K, 10000 kPa): 767.94 ± 0.36 kg/m3
mass density (323.15 K, 15000 kPa): 772.13 ± 0.39 kg/m3
mass density (323.15 K, 20000 kPa): 776.12 ± 0.42 kg/m3
mass density (323.15 K, 25000 kPa): 779.95 ± 0.46 kg/m3
mass density (323.15 K, 30000 kPa): 783.62 ± 0.49 kg/m3
mass density (323.15 K, 35000 kPa): 787.13 ± 0.52 kg/m3
mass density (323.15 K, 40000 kPa): 790.51 ± 0.56 kg/m3
mass density (323.15 K, 45000 kPa): 793.75 ± 0.6 kg/m3
mass density (323.15 K, 50000 kPa): 796.9 ± 0.63 kg/m3
mass density (323.15 K, 55000 kPa): 799.95 ± 0.66 kg/m3
mass density (323.15 K, 60000 kPa): 802.89 ± 0.69 kg/m3
mass density (323.15 K, 65000 kPa): 805.77 ± 0.72 kg/m3
mass density (328.15 K, 100 kPa): 754.6 ± 0.3 kg/m3
mass density (328.15 K, 5000 kPa): 759.51 ± 0.33 kg/m3
mass density (328.15 K, 10000 kPa): 764.08 ± 0.36 kg/m3
mass density (328.15 K, 15000 kPa): 768.39 ± 0.39 kg/m3
mass density (328.15 K, 20000 kPa): 772.51 ± 0.43 kg/m3
mass density (328.15 K, 25000 kPa): 776.42 ± 0.46 kg/m3
mass density (328.15 K, 30000 kPa): 780.18 ± 0.49 kg/m3
mass density (328.15 K, 35000 kPa): 783.75 ± 0.53 kg/m3
mass density (328.15 K, 40000 kPa): 787.17 ± 0.57 kg/m3
mass density (328.15 K, 45000 kPa): 790.5 ± 0.6 kg/m3
mass density (328.15 K, 50000 kPa): 793.7 ± 0.64 kg/m3
mass density (328.15 K, 55000 kPa): 796.82 ± 0.67 kg/m3
mass density (328.15 K, 60000 kPa): 799.82 ± 0.7 kg/m3
mass density (328.15 K, 65000 kPa): 802.72 ± 0.73 kg/m3
mass density (333.15 K, 100 kPa): 750.51 ± 0.3 kg/m3
mass density (333.15 K, 5000 kPa): 755.54 ± 0.33 kg/m3
mass density (333.15 K, 10000 kPa): 760.26 ± 0.36 kg/m3
mass density (333.15 K, 15000 kPa): 764.69 ± 0.4 kg/m3
mass density (333.15 K, 20000 kPa): 768.87 ± 0.43 kg/m3
mass density (333.15 K, 25000 kPa): 772.87 ± 0.46 kg/m3
mass density (333.15 K, 30000 kPa): 776.68 ± 0.5 kg/m3
mass density (333.15 K, 35000 kPa): 780.35 ± 0.53 kg/m3
mass density (333.15 K, 40000 kPa): 783.87 ± 0.57 kg/m3
mass density (333.15 K, 45000 kPa): 787.29 ± 0.61 kg/m3
mass density (333.15 K, 50000 kPa): 790.54 ± 0.64 kg/m3
mass density (333.15 K, 55000 kPa): 793.66 ± 0.68 kg/m3
mass density (333.15 K, 60000 kPa): 796.72 ± 0.71 kg/m3
mass density (333.15 K, 65000 kPa): 799.67 ± 0.74 kg/m3
